Assay results reported in US12600732B2, “Bifunctional compounds for degrading BTK via ubiquitin proteosome pathway” (NURIX THERAPEUTICS, INC., priority 2019, dated 2026).
Read-outs that look alike come from different tables or passages of the source. Each block holds one compound with its values, some of them ahead of it.

What was measured:
BTK [1] = target: T1, BTK (Mus musculus, UniProt P35991); assay: In vivo degradation of BTK in mouse PD experiments with oral dosing; settings: flow cytometry
T1 construct: from tissue; host or cells: mouse blood B cells / splenocytes (CD-1 or BALB/c)
How it was run: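 BTK in blood or splenocytes read by flow cytometry (or HTRF), degradation taken as B-cell minus T-cell BTK MFI versus vehicle. Mice (CD-1 or BALB/c) received compound orally, initially 90 mg/kg for 6 h, then lower doses and longer time points.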

BTK [2] = target: T2, BTK (Homo sapiens, UniProt Q06187); assay: Cellular BTK degradation assay (Total BTK HTRF) in TMD8 cells; assay type: cell-based; set-up: endogenous in cells; host or cells: TMD8
Experimental: Cellular BTK Degradation Assay
In Vitro Cellular Screening to Determine Potency as Measured by DC50 Values after Four Hour Incubation
(§1) BTK levels were determined using Cisbio Total-BTK HTRF (Homologous Time-Resolved Fluorescence) kit (63ADK064PEG) according to the manufacturer's protocol. Briefly, cells were incubated in 1× supplied lysis buffer for 30 minutes. In an opaque white low volume 96-well plate (Cisbio, 66PL96005), cell lysate was combined with two different specific BTK antibodies, one conjugated with Eu^3+-Cryptate FRET donor and one conjugated with d2 FRET acceptor. Assay controls include wells containing cell lysate with only the Eu^3+-Cryptate FRET donor antibody and wells containing both HTRF antibodies and lysis buffer without cells or control lysate provided by Cisbio. HTRF ratio was calculated as (acceptor signal at 665 nm/donor signal at 620 nm)×10^4. Background HTRF levels were determined from the control well containing the donor, but no acceptor, antibody. Background HTRF levels were subtracted from all samples. Readouts were reported as HTRF levels relative to HTRF levels of DMSO-treated cells. Four-parameter non-linear regressions were performed in GraphPad Prism 7.02 to obtain DC50 values.
Cellular BTK degradation was measured as above for four hours in TMD8 cells for two diastereomers of compound 130. DC50 and EC50 values are the concentration at which the response is halfway between the top and bottom of the fitted non-linear regression curve.
The present example evaluates whether potency of BTK CTMs shifts with longer timepoints. DC50 values are typically calculated with a 4-hour timepoint.

TMD8 cells [3] = settings: human, 72 h
TMD8 C481S cells [4] = assay: Cell viability assay (CellTiter-Glo), TMD8 C481S cells; settings: for EC50: Homo sapiens, TMD8, 72 h; for EMAX (% viable cells): TMD8 C481S cells, treatment time 72 h
TMD8 C481S cells [5] = settings: human, 72 h
TMD8 cells [6] = assay: Cell viability assay (CellTiter-Glo), TMD8 cells; settings: for EC50: Homo sapiens, TMD8, 72 h; for EMAX (% viable cells): TMD8 cells, treatment time 72 h
BTK C481S = BTK C481S (Homo sapiens, UniProt Q06187, C481S); assay: BTK degradation (Total BTK HTRF) in TMD8 cells expressing BTK-C481S; assay type: cell-based; set-up: endogenous in cells; host or cells: TMD8 BTK-C481S (clone2C3), Cas9 RNP knock-in; settings: TMD8 BTK-C481S (clone2C3) cells, treatment time 4 h
Experimental: as §1
BTK Degradation (Total BTK HTRF) at Four Hours in TMD8 Cells Expressing BTK-C481S
This example evaluates the potency of CTM in degrading […]. The BTK binding moieties utilized in CTMs bind to the BTK active site. This example evaluates whether the active site mutation C481S affects CTM-induced degradation of BTK.

Mino cells = assay: Cell viability assay (CellTiter-Glo), Mino cells; assay type: cell-based; settings: Mino cells, treatment time 72 h
Description: (§2) This example evaluates effects of CTM-mediated degradation on cell viability. […] Mino and Rec-1 are models of Mantle Cell Lymphoma, which is sensitive to IMiDs.

Rec-1 cells = assay: Cell viability assay (CellTiter-Glo), Rec-1 cells; assay type: cell-based
Description: as §2

[7] = system: B cell receptor (BCR) signaling; assay: B cell activation assay (flow cytometry), mouse B cells; assay type: cell-based; settings: treatment 4 h, IgM stimulation 18 h
Experimental: (§3) Compound was present throughout the stimulation. Cells were stained with Live/Dead dye (Fisher L34976) and then fluorophore-conjugated antibodies against CD20 (Biolegend 302330), CD3 (BD Pharmingen 557705), CD86 (Biolegend 305416) and CD69 (Biolegend 310906). Stained cells were fixed in PFA and run on an Attune N×T Acoustic Focusing Flow Cytometer (Thermo-Fisher A29004), and data was analyzed using FlowJo (v10.5.3) and GraphPad Prism (v7.00) software. Single live lymphocytes were gated for B cells (CD20+CD3−) and T cells (CD3+CD20−), and the geometric mean fluorescence intensity (MFI) of CD86 and CD69 was calculated for each population. The MFI of the unstimulated sample was used to quantify baseline activation.
(§4) This example evaluates whether CTM treatment affects B cell receptor (BCR) signaling. BTK is activated downstream of the B cell receptor and leads to upregulation of activation markers CD86 and CD69 on the surface of B cells.

[8] = system: B cell receptor (BCR) signaling; assay: B cell activation assay (flow cytometry), human B cells; assay type: cell-based; settings: treatment 4 h, IgM stimulation 18 h
Experimental: as §3, §4

primary human T cells [9] = assay: T cell activation assay, CD25 and CD69 staining (flow cytometry); assay type: cell-based; settings: fold-change of response relative to baseline
How it was run: (§5)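 Primary human T cells stimulated via TCR with anti-CD3/anti-CD28 in the presence of test compound. IL-2 secretion measured by ELISA; surface CD25 and CD69 by flow cytometry. Values are fold-change versus anti-CD3/anti-CD28 stimulation without compound.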

BTK [10] = target: T2, BTK; assay: BTK remaining in TMD8 WT mouse xenograft study; assay type: in vivo; set-up: from tissue; host or cells: TMD8 xenograft in CB.17 SCID mice; settings: PO, 30 mg/kg, QD, 21 days of dosing
Description: Efficacy in Mouse Xenograft Models
(§6) This example examines the activity of various BTK CTMs in relevant disease models, including the WT and C481S TMD8 model, which models B cell malignancies with/without inhibitor-driven BTK mutations at C481.

TMD8 tumor cells = assay: TMD8 xenograft efficacy study (wild-type BTK); assay type: in vivo, mouse; settings: TMD8 WT, PO, 30 mg/kg, QD, 21 days of dosing
Experimental: […] Tumor growth inhibition (% TGI) were calculated on the final day of measurement using the equation [1−(T−T0/C−T0)]×100, where T and C represent the mean size of tumors in the treated (T) and control (C) groups, and T0 refers to the tumor size at randomization.
as §6

primary human T cells [11] = assay: T cell activation assay, IL-2 secretion (ELISA); assay type: cell-based
How it was run: as §5

[12] = PK data for BTK CTMs (in vivo plasma concentrations); settings: for Vd: read-out: Volume of Distribution
Description: The present example evaluates in vivo plasma concentrations of BTK CTMs to develop PK-PD-efficacy relationship and predict human exposure.

[13] = oral dose 30 mg/kg, 24 h, blood
[14] = oral dose 3 mg/kg, 24 h, splenocytes
[15] = oral dose 10 mg/kg, 24 h, blood
[16] = oral dose 10 mg/kg, 24 h, splenocytes
[17] = Rat Sprague-Dawley, 10 mg/kg PO

Compound: NC(=O)[C@H]1CCN(c2ncnc(N)c2F)C[C@@H]1N1CCC[C@@H](Nc2cc(Cl)cc(C(F)(F)F)c2)C1=O [Vecabrutinib]
EMAX (% viable cells) (TMD8 cells [3]): 38% | EC50 (TMD8 C481S cells [4]): 530 nM | EMAX (% viable cells) (TMD8 C481S cells [5]): 51% | EC50 (TMD8 cells [6]): 256 nM

Compound: CN1CCN([C@@H]2CCCN(c3cnc(C(N)=O)c(Nc4ccc(C5(C)CCN(CCCCc6cccc7c6CN(C6CCC(=O)NC6=O)C7=O)CC5)cc4)n3)C2)C1=O (stereo partly shown) [Compound 21]
EMAX (% viable cells) (TMD8 cells [3]): 19% | EC50 (TMD8 cells [6]): 1.6 nM

Compound: NC(=O)c1ncc(-c2nccs2)nc1Nc1ccc(C2CCN(C[C@@H]3CCN(c4ccc5c(c4)C(=O)N(C4CCC(=O)NC4=O)C5=O)C3)CC2)cc1 (stereo partly shown) [Compound 148]
% BTK Remaining (BTK [1]; [13]): 24% | EC50 (TMD8 C481S cells [4]): 9.18 nM | EMAX (% viable cells) (TMD8 C481S cells [4]): 4% | DC50 (BTK C481S): 9.7 nM | EC50 (TMD8 cells [6]): 3.27 nM | EMAX (% viable cells) (TMD8 cells [6]): 2% | DC50 (BTK [2]; treatment time 24 h): 0.68 nM

Compound: CN1CCN([C@@H]2CCCN(c3cnc(C(N)=O)c(Nc4ccc(C5CCN(CC6CCN(c7ccc(C(=O)N[C@@H]8CCC(=O)NC8=O)nc7)CC6)CC5)cc4)n3)C2)C1=O [Compound 194]
% BTK Remaining (BTK [1]; oral dose 3 mg/kg, 24 h, blood): 90% | % BTK Remaining (BTK [1]; [14]): 95% | % BTK Remaining (BTK [1]; [15]): 63% | % BTK Remaining (BTK [1]; [16]): 57% | DC50 (BTK [2]; treatment time 4 h): 4.3 nM

Compound: CC#CC(=O)N1CCC[C@H]1c1nc(-c2ccc(C(=O)Nc3ccccn3)cc2)c2c(N)nccn12 [Acalabrutinib, acalabrutinib, reference compound]
EC50 (Mino cells; Homo sapiens): 1240 nM | EMAX (% viable cells) (Mino cells): 84% | EC50 (Rec-1 cells; Homo sapiens, Rec1, treatment time 72 h): 582 nM | EMAX (% viable cells) (Rec-1 cells; treatment time 72 h): 76% | EC50 ([7]; read-out: CD69 EC50): 1 nM | EC50 ([7]; read-out: CD86 EC50): 3 nM | EC50 (TMD8 C481S cells [4]): > 2000 nM | EMAX (% viable cells) (TMD8 C481S cells [4]): 96% | EC50 ([8]; read-out: CD69 EC50): 2 nM | EC50 ([8]; read-out: CD86 EC50): 3 nM | EC50 (TMD8 cells [6]): 12 nM | EMAX (% viable cells) (TMD8 cells [6]): 35%

More lines, main results first:

% BTK Remaining (BTK [1]; [13]): 25% | DC50 (BTK [2]; treatment time 24 h): 4.7 nM
Compound: NC(=O)c1ncc(-c2nccs2)nc1Nc1ccc(N2CCC3(CCN(Cc4ccc5c(c4)C(=O)N(C4CCC(=O)NC4=O)C5=O)CC3)CC2)cc1 (stereo not shown) [Compound 150]

% BTK Remaining (BTK [1]; oral dose 3 mg/kg, 24 h, blood): 40% | % BTK Remaining (BTK [1]; [14]): 39% | % BTK Remaining (BTK [1]; [15]): 25% | % BTK Remaining (BTK [1]; [16]): 23% | DC50 (BTK [2]; treatment time 4 h): 0.26 nM
Compound: CN1CCN([C@@H]2CCCN(c3cnc(C(N)=O)c(Nc4ccc(C5CCN(CC6CCN(c7ccc(C(=O)N[C@H]8CCC(=O)NC8=O)nc7)CC6)CC5)cc4)n3)C2)C1=O [Compound 195]

EC50 ([7]; read-out: CD69 EC50): 0.1 nM | EC50 ([7]; read-out: CD86 EC50): 0.2 nM | BTK Remaining (% relative to vehicle) (BTK [10]): 16% | % BTK Remaining (BTK [1]; oral dose 3 mg/kg, 6 h, blood): 26% | % BTK Remaining (BTK [1]; oral dose 3 mg/kg, 24 h, blood): 51% | DC50 (BTK C481S): 2.7 nM | AUC ([12]; Mouse Balb/c, 1 mg/kg IV): 1.77 µM·h | clearance ([12]; Mouse Balb/c, 1 mg/kg IV): 12 mL/min/kg | Vd ([12]; Mouse Balb/c, 1 mg/kg IV): 1.2 L/kg | AUC ([12]; Mouse Balb/c, 30 mg/kg PO): 1.79 µM·h | bioavailability ([12]; Mouse Balb/c, 30 mg/kg PO): 5% | AUC ([12]; Rat Sprague-Dawley, 1 mg/kg IV): 0.59 µM·h | clearance ([12]; Rat Sprague-Dawley, 1 mg/kg IV): 36.3 mL/min/kg | Vd ([12]; Rat Sprague-Dawley, 1 mg/kg IV): 4.6 L/kg | AUC [12, 17]: 0.027 µM·h | bioavailability [12, 17]: 1%
Compound: CN1CCN([C@@H]2CCCN(c3cnc(C(N)=O)c(Nc4ccc(C5CN(C6CCN(c7ccc8c(c7)C(=O)N(C7CCC(=O)NC7=O)C8=O)CC6)C5)cc4)n3)C2)C1=O (stereo partly shown) [Compound 37]
CD25 Staining Anti-CD3/Anti-CD28 Stimulation (primary human T cells [9]; 1.4 nM): 1.11 | CD69 Staining Anti-CD3/Anti-CD28 Stimulation (primary human T cells [9]; 1.4 nM): 1.08 | CD25 Staining Anti-CD3/Anti-CD28 Stimulation (primary human T cells [9]; 37 nM): 0.79 | CD69 Staining Anti-CD3/Anti-CD28 Stimulation (primary human T cells [9]; 37 nM): 0.77 | CD25 Staining Anti-CD3/Anti-CD28 Stimulation (primary human T cells [9]; 333 nM): 0.43 | CD69 Staining Anti-CD3/Anti-CD28 Stimulation (primary human T cells [9]; 333 nM): 0.45 | Tumor Growth Inhibition (relative to vehicle) (TMD8 tumor cells): 41% | EC50 (TMD8 C481S cells [4]): 51.7 nM | EMAX (% viable cells) (TMD8 C481S cells [4]): 16% | EC50 (TMD8 cells [6]): 21.1 nM | EMAX (% viable cells) (TMD8 cells [6]): 10% | IL-2 Secretion Anti-CD3/Anti-CD28 Stimulation (primary human T cells [11]; 1.4 nM, fold-change of response relative to baseline): 1.16 | IL-2 Secretion Anti-CD3/Anti-CD28 Stimulation (primary human T cells [11]; 37 nM, fold-change of response relative to baseline): 2.06 | IL-2 Secretion Anti-CD3/Anti-CD28 Stimulation (primary human T cells [11]; 333 nM, fold-change of response relative to baseline (stimulation without compound)): 1.64
